Measured values published in paper PMC5218480 (PLoS ONE, 2017).

Test system: MV-4-11 cells
Test: Gene expression microarray analysis (Affymetrix PrimeView) and GSEA
Format: cell-based, human
Parameters: RFU PODN (11730768_x_at) / Fold change /veh PODN (11730768_x_at) / RFU LINC00158 (11744669_a_at) / Fold change /veh LINC00158 (11744669_a_at) / RFU DUSP10 (11751237_a_at) / Fold change /veh DUSP10 (11751237_a_at) / RFU ID3 (11757404_x_at) / Fold change /veh ID3 (11757404_x_at) / RFU PLEKHG5 (11737974_s_at) / Fold change /veh PLEKHG5 (11737974_s_at) / RFU LRRC4B (11730491_at) / Fold change /veh LRRC4B (11730491_at) / RFU GIMAP4 (11747438_a_at) / Fold change /veh GIMAP4 (11747438_a_at) / RFU KRT8 (11758183_x_at) / Fold change /veh KRT8 (11758183_x_at) / RFU CNN1 (11734310_a_at) / Fold change /veh CNN1 (11734310_a_at) / RFU VPS37D (11726825_at) / Fold change /veh VPS37D (11726825_at) / RFU C10orf10 (11716522_x_at) / Fold change /veh C10orf10 (11716522_x_at) / RFU KIR2DL2 /// KIR2DL4 /// KIR2DL5A /// KIR2DL5B /// KIR2DS1 /// KIR2DS2 /// KIR2DS3 /// KIR2DS4 /// KIR3DL3 /// KIR3DL3 /// KIR3DS1 (11738374_at) / Fold change /veh KIR2DL2 /// KIR2DL4 /// KIR2DL5A /// KIR2DL5B /// KIR2DS1 /// KIR2DS2 /// KIR2DS3 /// KIR2DS4 /// KIR3DL3 /// KIR3DL3 /// KIR3DS1 (11738374_at) / RFU C1QL1 (11718748_at) / Fold change /veh C1QL1 (11718748_at) / RFU TMPRSS4 (11747572_a_at) / Fold change /veh TMPRSS4 (11747572_a_at) / RFU HAMP (11756126_x_at) / Fold change /veh HAMP (11756126_x_at) / RFU RNFT2 (11725882_a_at) / Fold change /veh RNFT2 (11725882_a_at) / RFU NR4A2 (11747474_a_at) / Fold change /veh NR4A2 (11747474_a_at) / RFU ABCC12 (11746883_a_at) / Fold change /veh ABCC12 (11746883_a_at) / RFU TMEM136 (11760407_x_at) / Fold change /veh TMEM136 (11760407_x_at) / RFU CLDN22 /// WWC2 (11732394_at) / Fold change /veh CLDN22 /// WWC2 (11732394_at) / RFU HLA-DPB1 (11760878_x_at) / Fold change /veh HLA-DPB1 (11760878_x_at) / RFU SPINT1 (11716480_a_at) / Fold change /veh SPINT1 (11716480_a_at) / RFU GAP43 (11754022_s_at) / Fold change /veh GAP43 (11754022_s_at) / RFU A4GNT (11735810_at) / Fold change /veh A4GNT (11735810_at) / RFU PRB3 (11715151_x_at) / Fold change /veh PRB3 (11715151_x_at) / RFU TUBB4B (11761932_at) / Fold change /veh TUBB4B (11761932_at) / RFU CAPN14 (11732068_a_at) / Fold change /veh CAPN14 (11732068_a_at) / RFU TMCC2 (11721928_a_at) / Fold change /veh TMCC2 (11721928_a_at) / RFU IRGQ (11745062_a_at) / Fold change /veh IRGQ (11745062_a_at) / RFU FAM174B (11720279_a_at) / Fold change /veh FAM174B (11720279_a_at) / RFU TMPRSS4 (11748680_a_at) / Fold change /veh TMPRSS4 (11748680_a_at) / RFU FAM212B (11763350_a_at) / Fold change /veh FAM212B (11763350_a_at) / RFU PLEKHG5 (11743358_a_at) / Fold change /veh PLEKHG5 (11743358_a_at) / RFU ZSCAN30 (11745921_a_at) / Fold change /veh ZSCAN30 (11745921_a_at) / RFU CMKLR1 (11741424_a_at) / Fold change /veh CMKLR1 (11741424_a_at) / RFU LOC101060620 /// MAPK8IP1 (11723275_at) / Fold change /veh LOC101060620 /// MAPK8IP1 (11723275_at) / RFU SPTSSB (11747773_x_at) / Fold change /veh SPTSSB (11747773_x_at) / RFU PRSS12 (11739890_at) / Fold change /veh PRSS12 (11739890_at) / RFU BIN1 (11741810_x_at) / Fold change /veh BIN1 (11741810_x_at) / RFU WNT11 (11732464_a_at) / Fold change /veh WNT11 (11732464_a_at) / RFU C10orf10 (11716521_a_at) / Fold change /veh C10orf10 (11716521_a_at) / RFU C5orf56 (11738089_at) / Fold change /veh C5orf56 (11738089_at) / RFU CYB561 (11721691_x_at) / Fold change /veh CYB561 (11721691_x_at) / RFU ANKRD19P (11752326_a_at) / Fold change /veh ANKRD19P (11752326_a_at) / RFU OR2T12 /// OR2T33 /// OR2T8 (11738714_s_at) / Fold change /veh OR2T12 /// OR2T33 /// OR2T8 (11738714_s_at) / RFU VCAN (11748164_a_at) / Fold change /veh VCAN (11748164_a_at) / RFU JSRP1 (11732532_at) / Fold change /veh JSRP1 (11732532_at) / RFU KRTAP10-11 (11738290_x_at) / Fold change /veh KRTAP10-11 (11738290_x_at) / RFU MYO3A (11730013_a_at) / Fold change /veh MYO3A (11730013_a_at) / RFU EBF3 (11725865_a_at) / Fold change /veh EBF3 (11725865_a_at) / RFU CAMK2N1 (11719241_x_at) / Fold change /veh CAMK2N1 (11719241_x_at) / RFU C5orf56 (11738088_a_at) / Fold change /veh C5orf56 (11738088_a_at) / RFU OLFML3 (11715873_a_at) / Fold change /veh OLFML3 (11715873_a_at) / RFU LOC100653217 /// NTM (11731650_a_at) / Fold change /veh LOC100653217 /// NTM (11731650_a_at) / RFU MAPK11 (11762145_a_at) / Fold change /veh MAPK11 (11762145_a_at) / RFU FIZ1 (11724087_x_at) / Fold change /veh FIZ1 (11724087_x_at) / RFU OASL (11726364_x_at) / Fold change /veh OASL (11726364_x_at) / RFU SOX15 (11748057_x_at) / Fold change /veh SOX15 (11748057_x_at) / RFU CD79A (11719716_a_at) / Fold change /veh CD79A (11719716_a_at) / RFU HIST1H1D (11736915_at) / Fold change /veh HIST1H1D (11736915_at) / RFU CASKIN2 (11723855_a_at) / Fold change /veh CASKIN2 (11723855_a_at) / RFU LOC730098 (11760151_x_at) / Fold change /veh LOC730098 (11760151_x_at) / RFU OR4N2 (11742367_at) / Fold change /veh OR4N2 (11742367_at) / RFU PRRT2 (11749266_a_at) / Fold change /veh PRRT2 (11749266_a_at) / RFU SNX32 (11753110_a_at) / Fold change /veh SNX32 (11753110_a_at) / RFU CDHR5 (11726645_a_at) / Fold change /veh CDHR5 (11726645_a_at) / RFU RCAN1 (11760418_a_at) / Fold change /veh RCAN1 (11760418_a_at) / RFU FAM167A (11723789_a_at) / Fold change /veh FAM167A (11723789_a_at) / RFU FAM26E (11764081_at) / Fold change /veh FAM26E (11764081_at) / RFU ISYNA1 (11749810_s_at) / Fold change /veh ISYNA1 (11749810_s_at) / RFU ACY1 (11761880_at) / Fold change /veh ACY1 (11761880_at) / RFU 11764098_at / Fold change /veh 11764098_at / RFU SAMD14 (11745864_x_at) / Fold change /veh SAMD14 (11745864_x_at) / RFU NPB (11741838_a_at) / Fold change /veh NPB (11741838_a_at) / RFU TMPRSS6 (11731388_a_at) / Fold change /veh TMPRSS6 (11731388_a_at) / RFU KRTAP10-2 (11738614_at) / Fold change /veh KRTAP10-2 (11738614_at) / RFU ARHGAP8 /// PRR5-ARHGAP8 (11727945_x_at) / Fold change /veh ARHGAP8 /// PRR5-ARHGAP8 (11727945_x_at) / RFU KRTAP5-7 /// NADSYN1 (11734609_at) / Fold change /veh KRTAP5-7 /// NADSYN1 (11734609_at) / RFU RASL12 (11751679_a_at) / Fold change /veh RASL12 (11751679_a_at) / RFU CDKN2B (11736163_a_at) / Fold change /veh CDKN2B (11736163_a_at) / RFU PRF1 (11729649_at) / Fold change /veh PRF1 (11729649_at) / RFU, ZNF638 /// ZNF638-IT1 / Fold change vs veh, ZNF638 /// ZNF638-IT1 / RFU, PANK3 / Fold change vs veh, PANK3 / RFU, SH3YL1 / Fold change vs veh, SH3YL1 / RFU, ZEB2 / Fold change vs veh, ZEB2 / RFU, NRIP1 / Fold change vs veh, NRIP1 / RFU, PTTG1IP / Fold change vs veh, PTTG1IP / RFU, CAPN2 / Fold change vs veh, CAPN2 / RFU, MED14 / Fold change vs veh, MED14 / RFU, SNORA58 / Fold change vs veh, SNORA58 / RFU, C1orf63 / Fold change vs veh, C1orf63 / RFU, LRRFIP1 / Fold change vs veh, LRRFIP1 / RFU, NDUFAF7 / Fold change vs veh, NDUFAF7 / RFU, SLC12A2 / Fold change vs veh, SLC12A2 / RFU, IBTK / Fold change vs veh, IBTK / RFU, ESF1 / Fold change vs veh, ESF1 / Fold change vs veh, TMEM50B / RFU, TAOK1 / Fold change vs veh, TAOK1 / RFU, ACBD3 / Fold change vs veh, ACBD3 / RFU, TMA16 / Fold change vs veh, TMA16 / RFU, RWDD3 / Fold change vs veh, RWDD3 / RFU, BCAT1 / Fold change vs veh, BCAT1 / RFU, EDEM3 / Fold change vs veh, EDEM3 / RFU, TMEM33 / Fold change vs veh, TMEM33 / RFU, WDR75 / Fold change vs veh, WDR75 / RFU, AHCTF1 / Fold change vs veh, AHCTF1 / RFU, TFRC / Fold change vs veh, TFRC / RFU, ZDHHC17 / Fold change vs veh, ZDHHC17 / RFU, NOM1 / Fold change vs veh, NOM1 / RFU, ARL8B / Fold change vs veh, ARL8B / RFU, ZBTB11 / Fold change vs veh, ZBTB11 / RFU, TAMM41 / Fold change vs veh, TAMM41 / RFU, KIAA1704 /// LOC100996395 / Fold change vs veh, KIAA1704 /// LOC100996395 / RFU, ING1 / Fold change vs veh, ING1 / RFU, TRMT61B / Fold change vs veh, TRMT61B / RFU, FUBP3 / Fold change vs veh, FUBP3 / RFU, TP53 / Fold change vs veh, TP53 / RFU, TNKS2 / Fold change vs veh, TNKS2 / RFU, ZFP14 / Fold change vs veh, ZFP14 / RFU, ACTR2 / Fold change vs veh, ACTR2 / RFU, PPP3R1 / Fold change vs veh, PPP3R1 / RFU, PIK3R1 / Fold change vs veh, PIK3R1 / RFU, HNRNPA1 / Fold change vs veh, HNRNPA1 / RFU, RNF170 / Fold change vs veh, RNF170 / RFU, ZNF28 / Fold change vs veh, ZNF28 / RFU, RNGTT / Fold change vs veh, RNGTT / RFU, OGT / Fold change vs veh, OGT / RFU, BRD1 / Fold change vs veh, BRD1 / RFU, MARS / Fold change vs veh, MARS / RFU, ZNF655 / Fold change vs veh, ZNF655 / RFU, FAHD1 / Fold change vs veh, FAHD1 / RFU, BDP1 / Fold change vs veh, BDP1 / RFU, LRRCC1 / Fold change vs veh, LRRCC1 / RFU, ARID1A / Fold change vs veh, ARID1A / RFU, ZNF146 / Fold change vs veh, ZNF146 / RFU, ZNF330 / Fold change vs veh, ZNF330 / RFU, GPN3 / Fold change vs veh, GPN3 / RFU, C9orf123 / Fold change vs veh, C9orf123 / RFU, N4BP2L2 / Fold change vs veh, N4BP2L2 / RFU, ARFIP1 / Fold change vs veh, ARFIP1 / RFU, FAM179B / Fold change vs veh, FAM179B / RFU, BCL10 / Fold change vs veh, BCL10 / RFU, UHRF1BP1L / Fold change vs veh, UHRF1BP1L / RFU, BET1 / Fold change vs veh, BET1 / RFU, CNOT2 / Fold change vs veh, CNOT2 / RFU, ZNF268 / Fold change vs veh, ZNF268 / Fold change vs veh, ZNF507 / RFU, DGCR2 / Fold change vs veh, DGCR2 / RFU, WDSUB1 / Fold change vs veh, WDSUB1 / Fold change vs veh, HSP90B1 /// MIR3652 / RFU, ADSS / Fold change vs veh, ADSS / RFU, GK / Fold change vs veh, GK / RFU, ZNF148 / Fold change vs veh, ZNF148 / RFU, TAF9 / Fold change vs veh, TAF9 / RFU, SLC1A5 / Fold change vs veh, SLC1A5 / RFU, SLMO2 / Fold change vs veh, SLMO2 / RFU, ABCC4 / Fold change vs veh, ABCC4 / RFU, LOC101060439 /// RAP1B / Fold change vs veh, LOC101060439 /// RAP1B / RFU, RFX7 / Fold change vs veh, RFX7 / RFU, GTPBP10 / Fold change vs veh, GTPBP10 / RFU, CNEP1R1 / Fold change vs veh, CNEP1R1 / RFU, BIVM-ERCC5 /// ERCC5 / Fold change vs veh, BIVM-ERCC5 /// ERCC5 / RFU, ILF3 / Fold change vs veh, ILF3 / RFU 11762660_at / Fold change /veh 11762660_at / RFU VCAN (11757783_s_at) / Fold change /veh VCAN (11757783_s_at) / RFU DDX43 (11728927_at) / Fold change /veh DDX43 (11728927_at) / RFU KRT8 (11758188_x_at) / Fold change /veh KRT8 (11758188_x_at) / RFU NKD1 (11759106_at) / Fold change /veh NKD1 (11759106_at) / RFU SRD5A1 (11742802_a_at) / Fold change /veh SRD5A1 (11742802_a_at) / RFU TPSAB1 /// TPSB2 (11721975_s_at) / Fold change /veh TPSAB1 /// TPSB2 (11721975_s_at) / RFU GSTM3 (11746129_a_at) / Fold change /veh GSTM3 (11746129_a_at) / RFU IL23R (11737362_x_at) / Fold change /veh IL23R (11737362_x_at) / RFU TMEM51 (11727254_a_at) / Fold change /veh TMEM51 (11727254_a_at) / RFU PIWIL2 (11732686_x_at) / Fold change /veh PIWIL2 (11732686_x_at) / RFU ORM1 (11744905_x_at) / Fold change /veh ORM1 (11744905_x_at) / RFU CCDC152 (11743942_at) / Fold change /veh CCDC152 (11743942_at) / RFU ECM1 (11717891_a_at) / Fold change /veh ECM1 (11717891_a_at) / RFU IL23R (11748794_a_at) / Fold change /veh IL23R (11748794_a_at) / RFU TNFAIP8L3 (11732012_x_at) / Fold change /veh TNFAIP8L3 (11732012_x_at) / RFU MBOAT4 (11741988_at) / Fold change /veh MBOAT4 (11741988_at) / RFU 11764193_at / Fold change /veh 11764193_at / RFU TMEM53 (11763286_at) / Fold change /veh TMEM53 (11763286_at) / RFU MAGEB2 (11727129_at) / Fold change /veh MAGEB2 (11727129_at) / RFU TMEM200A (11744735_a_at) / Fold change /veh TMEM200A (11744735_a_at) / RFU CCDC152 (11751479_a_at) / Fold change /veh CCDC152 (11751479_a_at) / RFU FAM211A (11726209_a_at) / Fold change /veh FAM211A (11726209_a_at) / RFU RGS16 (11746705_a_at) / Fold change /veh RGS16 (11746705_a_at) / RFU VCAN (11755009_s_at) / Fold change /veh VCAN (11755009_s_at) / RFU RHOB (11743442_s_at) / Fold change /veh RHOB (11743442_s_at) / RFU RGS16 (11720943_a_at) / Fold change /veh RGS16 (11720943_a_at) / RFU RGS16 (11720944_at) / Fold change /veh RGS16 (11720944_at) / RFU, VPS4B / Fold change vs veh, VPS4B / RFU, CREB1 / Fold change vs veh, CREB1 / RFU, DNAJC13 / Fold change vs veh, DNAJC13 / RFU, GNAQ / Fold change vs veh, GNAQ / RFU, CDK5R1 / Fold change vs veh, CDK5R1 / RFU, ZRANB3 / Fold change vs veh, ZRANB3 / RFU, CUL4A / Fold change vs veh, CUL4A / RFU, CCNY / Fold change vs veh, CCNY / RFU, UFL1 / Fold change vs veh, UFL1 / RFU, COG3 / Fold change vs veh, COG3 / RFU, DIAPH2 / Fold change vs veh, DIAPH2 / RFU, SKA2 / Fold change vs veh, SKA2 / RFU, AFF3 / Fold change vs veh, AFF3 / RFU, LMF1 / Fold change vs veh, LMF1 / RFU, IPO11 / Fold change vs veh, IPO11 / RFU, DFFB / Fold change vs veh, DFFB / RFU, FOXP1 / Fold change vs veh, FOXP1 / RFU, CARD8 / Fold change vs veh, CARD8 / RFU, STRN3 / Fold change vs veh, STRN3 / RFU, ADK / Fold change vs veh, ADK / RFU, RASSF2 / Fold change vs veh, RASSF2 / RFU, WIPF1 / Fold change vs veh, WIPF1 / RFU, LARP1B / Fold change vs veh, LARP1B / RFU, RASA1 / Fold change vs veh, RASA1 / RFU, RB1 / Fold change vs veh, RB1 / RFU, PPFIA1 / Fold change vs veh, PPFIA1 / RFU, MAT2A / Fold change vs veh, MAT2A / RFU, CCT5 / Fold change vs veh, CCT5 / RFU, WDR92 / Fold change vs veh, WDR92 / RFU, CUX1 / Fold change vs veh, CUX1 / RFU, TTC7A / Fold change vs veh, TTC7A / RFU, TMEM135 / Fold change vs veh, TMEM135 / RFU, DEPTOR / Fold change vs veh, DEPTOR / RFU, CPM / Fold change vs veh, CPM / RFU, DNAJB6 / Fold change vs veh, DNAJB6 / RFU, CACNA2D3 / Fold change vs veh, CACNA2D3 / RFU, DTX4 / Fold change vs veh, DTX4 / RFU, TFCP2 / Fold change vs veh, TFCP2 / RFU, GMCL1 /// GMCL1P1 / Fold change vs veh, GMCL1 /// GMCL1P1 / RFU, AEBP2 / Fold change vs veh, AEBP2 / RFU, SNHG1 /// SNORD22 /// SNORD25 /// SNORD26 /// SNORD27 /// SNORD28 /// SNORD29 /// SNORD31 / Fold change vs veh, SNHG1 /// SNORD22 /// SNORD25 /// SNORD26 /// SNORD27 /// SNORD28 /// SNORD29 /// SNORD31 / Fold change (Aza/veh), C12orf56 (ProbeSet 11735607_a_at) / Fold change (ACY-1035/veh), C12orf56 (ProbeSet 11735607_a_at) / Fold change (Aza/veh), FGFR1OP (ProbeSet 11751329_s_at) / Fold change (ACY-1035/veh), FGFR1OP (ProbeSet 11751329_s_at) / Fold change (Aza/veh), VPS36 (ProbeSet 11739960_a_at) / Fold change (ACY-1035/veh), VPS36 (ProbeSet 11739960_a_at) / RFU SYPL1 (11715823_x_at) / Fold change /veh SYPL1 (11715823_x_at) / RFU IGFBP7 (11715501_s_at) / Fold change /veh IGFBP7 (11715501_s_at) / RFU REEP3 (11722064_at) / Fold change /veh REEP3 (11722064_at) / RFU IGLL1 (11728026_x_at) / Fold change /veh IGLL1 (11728026_x_at): dose or concentration left out as unconfirmed
Settings: MV-4-11 cells, 48 hours

Nc1ccc(-c2cccs2)cc1NC(=O)c1ccc2c(c1)cc(C1CC1)n2CCN1CCOCC1 [ACY-1035] was tested, and the “Fold change /veh ABCC12 (11746883_a_at)” value was 1.17.
